Data as given in ChEMBL document CHEMBL1143564, “Structures of three classes of anticancer agents bound to the human topoisomerase I-DNA covalent complex” (J Med Chem, 2005).

Biological target: T1, DNA topoisomerase 1 (Homo sapiens, UniProt P11387)
T1 sequence (P11387 whole entry): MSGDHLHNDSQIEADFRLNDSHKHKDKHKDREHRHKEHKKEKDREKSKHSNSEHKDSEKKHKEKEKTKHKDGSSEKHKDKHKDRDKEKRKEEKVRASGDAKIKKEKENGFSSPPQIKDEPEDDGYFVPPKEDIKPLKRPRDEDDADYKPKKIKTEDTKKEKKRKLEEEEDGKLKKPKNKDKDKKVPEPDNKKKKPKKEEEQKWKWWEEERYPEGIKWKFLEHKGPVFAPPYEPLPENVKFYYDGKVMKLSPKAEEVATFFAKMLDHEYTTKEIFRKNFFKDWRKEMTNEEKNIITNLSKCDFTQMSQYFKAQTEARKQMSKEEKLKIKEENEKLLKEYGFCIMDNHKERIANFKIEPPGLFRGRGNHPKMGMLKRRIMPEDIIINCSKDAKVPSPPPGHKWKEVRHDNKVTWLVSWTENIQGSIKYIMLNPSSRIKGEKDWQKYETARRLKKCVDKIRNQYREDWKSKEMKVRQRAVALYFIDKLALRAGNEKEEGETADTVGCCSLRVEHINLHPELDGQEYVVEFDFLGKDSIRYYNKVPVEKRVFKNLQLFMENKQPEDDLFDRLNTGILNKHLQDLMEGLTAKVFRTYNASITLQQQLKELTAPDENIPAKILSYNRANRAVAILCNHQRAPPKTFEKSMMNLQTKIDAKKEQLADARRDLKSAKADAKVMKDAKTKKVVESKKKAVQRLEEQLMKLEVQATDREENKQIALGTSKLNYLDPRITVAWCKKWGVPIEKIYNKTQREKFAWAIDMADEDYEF
Assay: Inhibition of topoisomerase I-DNA complex in trapping assay

## O=C1NC(=O)c2c1c1c3ccc(O)cc3[nH]c1c1c2c2ccc(O)cc2n1C1OC(CO)C(O)C(O)C1O (stereo unspecified)
  IC50: 30 nM
